Entries after “also recorded” stand apart in the source; their conditions may differ.
Tests used:
[1] = tested on: CSR:T1R1 chimeric homomer; assay: Fluo-4 calcium assay, cells transfected with CSR:T1R1; format: cell-based, human; conditions: Calcium Chloride 2 mM, 745047-97-6 25 μM, MSG 2.5 mM + IMP 0.2 mM; for CSR:T1R1 AVG (mean ΔF/F): HEK293T/Gα16-gustducin 44 cells, six replicates
Method: (§1) Fluo-4 is a fluorescent indicator for intracellular calcium and allows for determination of changes in the intracellular calcium concentration, in particular an increase in response to receptor activation occurring after ligand addition.
(§2) HEK293 cells stably expressing Gα16-gustducin 44 were used as host cells and transfected with various constructs as described in example 4.
(§3) Black, clear-bottom 96-well plates were used for all assays. They were seeded the day before with 8500 transfected cells per well and maintained at 37° C. overnight in an a growth medium appropriate for the cells used. For HEK293 cells, Dulbecco's Modified Eagle medium containing high glucose, L-glutamine, pyroxidine hydrochloride, and supplemented with 10% fetal bovine serum was used for growth and maintenance of the HEK293 cells.
(§4) At the time of the assay, the growth medium was discarded and cells were incubated for 1 hour (at 37° C. in the dark) with 50 μl of a calcium assay solution consisting of 1.5 μM Fluo-4 AM (Molecular Probes™, Invitrogen, US) and 2.5 μM probenicid (Sigma-Aldrich) dissolved in a reduced calcium C1 buffer solution. Reduced calcium C1 buffer solution contains 130 mM NaCl, 5 mM KCl, 10 mM Hepes, 0.5 mM CaCl2 (reduced from 2 mM) and 10 mM glucose (pH 7.4).
(§5) After the initial 1 hour loading period, the plates were washed 5 times with 100 μl per well of reduced calcium C1 buffer using an automated plate washer (BioTek) and after washing, the plate was further incubated for 30 minutes at room temperature in the dark to allow for complete de-esterification of the Fluo-4-AM. The buffer solutions were discarded, the plate was washed 5 times with 100 μl reduced calcium C1 wash buffer and finally the cells were reconstituted in 180 μl of reduced calcium C1 wash buffer.
(§6) For assay reading, the plate was placed in a FLIPR (fluorescence imaging plate reader (FLIPR-Tetra, Molecular Devices)), and receptor activation was initiated following addition of 20 μl of a 10× concentrated ligand stock solution, which were prepared in reduced calcium C1 buffer.
(§7) Fluorescence was continuously monitored for 15 seconds prior to ligand addition and for 105 seconds after ligand addition (45-105 sec may be sufficient).
(§8) Receptor activation is determined by the increase in peak fluorescence (F) normalized to the baseline fluorescence (F0). The data are normalized using the following equation: ΔF/F=(F−F0)/F0, where F is the peak fluorescence signal and F0 is the baseline fluorescence signal, wherein the baseline fluorescence represents the mean fluorescence calculated for the first 10 to 15 seconds prior to ligand addition.
(§9) This value obtained corresponds to the calcium increase of the cell in response to a direct or indirect interaction with the transfected receptor (“signal”).
(§10) As a negative control, mock transfected cells were exposed to the same concentration of ligand and the concentration of calcium traces not corresponding to a signal was determined.
(§11) HEK293T cells that stably express Gα16-gustducin 44 (formed as described in WO 2004/055048) were transfected with the CSR::T1R1, CSR::T1R3 constructs, or with hCaSR as follows:
On day 0, the HEK293T/Gα16-gustducin 44 cells were plated in 96-well black, clear-bottom plates at a density of 8500 cells per well and grown overnight in selective growth media. […]

[2] = tested on: CSR:T1R1/CSR:T1R3 chimeric heterodimer; assay: Fluo-4 calcium assay, cells transfected with CSR:T1R1 and CSR:T1R3; format: cell-based, human; conditions: for response (calcium signal) of CSR:T1R1/CSR:T1R3 chimeric heterodimer, in words / CSR:T1R1/CSR:T1R3 AVG (mean ΔF/F): Calcium Chloride 2 mM, 745047-97-6 25 μM; for CSR:T1R1/CSR:T1R3 AVG (mean ΔF/F): HEK293T/Gα16-gustducin 44 cells, six replicates, MSG 2.5 mM + IMP 0.2 mM; for signal in CSR:T1R1/CSR:T1R3 cells as magnitude of signals obtained in cells transfected with the hCaSR receptor: relative to hCaSR transfected cells
Method: as §1, §2, §3, §4, §5, §6, §7, §8, §9, §10, §11
On day 0, the HEK293T/Gα16-gustducin 44 cells were plated in 96-well black, clear-bottom plates at a density of 8500 cells per well and grown overnight in selective growth media. On day 1, the media was changed to an antibiotic-free and serum-free growth medium and the cells were transfected using 75 ng each of CSR:T1R1 and CSR:T1R3 (total 150 ng), T1R1 and T1R3 (total 150 ng), or 75 ng hCaSR vector construct DNA and 0.3 μl of Lipofectamine 2000 (Invitrogen).
For transfection of either the CSR:T1R1/CSR:T1R3 heterodimer, 75 ng of each vector construct was combined for a total of 150 ng per pair and used together with 0.3 μl of Lipofectamine 2000. 75 ng of hCaSR vector DNA was used for this calcium-sensing monomeric GPCR […]

hCaSR = target: T1, hCaSR (Homo sapiens, UniProt P41180, E1011Q); assay: Fluo-4 calcium assay, cells transfected with hCaSR; format: cell-based; conditions: Calcium Chloride 2 mM, 745047-97-6 25 μM, MSG 2.5 mM + IMP 0.2 mM; for hCaSR AVG (mean ΔF/F): HEK293T/Gα16-gustducin 44 cells, six replicates
T1 construct: For hCaSR, a commercially available pCMV-based vector construct which is based on the full length cDNA was used; host or cells: HEK293T cells stably expressing Galpha16-gustducin 44, transiently transfected with 75 ng of vector
T1 sequence (P41180 20-1078 E1011Q): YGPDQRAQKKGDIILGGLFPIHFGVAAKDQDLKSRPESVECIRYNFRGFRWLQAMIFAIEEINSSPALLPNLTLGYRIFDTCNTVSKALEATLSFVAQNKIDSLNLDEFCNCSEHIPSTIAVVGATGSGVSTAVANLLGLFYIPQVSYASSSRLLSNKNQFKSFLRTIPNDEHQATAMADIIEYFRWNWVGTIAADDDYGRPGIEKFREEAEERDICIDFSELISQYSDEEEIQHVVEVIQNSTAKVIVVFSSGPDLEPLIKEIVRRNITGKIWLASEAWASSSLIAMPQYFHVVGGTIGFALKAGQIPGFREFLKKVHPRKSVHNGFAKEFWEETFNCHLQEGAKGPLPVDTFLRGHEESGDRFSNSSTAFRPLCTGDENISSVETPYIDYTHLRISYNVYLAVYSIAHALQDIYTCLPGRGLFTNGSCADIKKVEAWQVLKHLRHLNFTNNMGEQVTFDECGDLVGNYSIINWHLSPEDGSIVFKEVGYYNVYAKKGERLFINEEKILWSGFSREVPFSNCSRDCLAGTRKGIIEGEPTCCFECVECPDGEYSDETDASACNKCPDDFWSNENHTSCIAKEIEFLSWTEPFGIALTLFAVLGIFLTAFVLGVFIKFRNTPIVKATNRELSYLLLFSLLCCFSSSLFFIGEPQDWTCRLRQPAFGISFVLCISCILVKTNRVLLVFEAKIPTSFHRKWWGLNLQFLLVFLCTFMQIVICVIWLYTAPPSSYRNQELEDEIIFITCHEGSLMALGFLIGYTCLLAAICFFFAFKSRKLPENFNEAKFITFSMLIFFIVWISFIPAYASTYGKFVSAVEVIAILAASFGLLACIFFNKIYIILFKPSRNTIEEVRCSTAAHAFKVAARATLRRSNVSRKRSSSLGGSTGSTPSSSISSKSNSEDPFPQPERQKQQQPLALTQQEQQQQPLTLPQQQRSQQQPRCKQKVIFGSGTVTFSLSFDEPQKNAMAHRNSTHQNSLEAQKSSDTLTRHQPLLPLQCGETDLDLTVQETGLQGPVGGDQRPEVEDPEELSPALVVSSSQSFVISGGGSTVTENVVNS
Method: as §1, §2, §3, §4, §5, §6, §7
(§12) Receptor activation is determined by the increase in peak fluorescence (F) normalized to the baseline fluorescence (F0). The data are normalized using the following equation: ΔF/F=(F−F0)/F0, where F is the peak fluorescence signal and F0 is the baseline fluorescence signal, wherein the baseline fluorescence represents the mean fluorescence calculated for the first 10 to 15 seconds prior to ligand addition. […]
As a negative control, mock transfected cells were exposed to the same concentration of ligand and the concentration of calcium traces not corresponding to a signal was determined. […]

[3] = tested on: Mock transfected HEK293T/Gα16-gustducin 44 cells; assay: Fluo-4 calcium assay, mock transfection (negative control); format: cell-based; conditions: Calcium Chloride 2 mM, 745047-97-6 25 μM; for Neg. control (mock transfection) AVG (mean ΔF/F): mock transfected cells, six replicates, MSG 2.5 mM + IMP 0.2 mM
Method: as §1, §2, §3
At the time of the assay, the growth medium was discarded and cells were incubated for 1 hour (at 37° C. in the dark) with 50 μl of a calcium assay solution consisting of 1.5 μM Fluo-4 AM (Molecular Probes™, Invitrogen, US) and 2.5 μM probenicid (Sigma-Aldrich) dissolved in a reduced calcium C1 buffer solution. […]
as §6, §7, §12, §10
The intracellular calcium response following stimulation with various ligands was determined in HEK293T cells stably expressing Gα16-gustducin 44 and transfected with CSR:T1R1 and/or CSR:T1R3 chimeric constructs. […]
The transfections were performed as described in example 4. Results were calculated as described in example 1 (data indicates the normalized increase in fluorescence over baseline after stimulation (ΔF/F); the mean (AVG) and the ±Standard deviation (STD) of six replicate experiments is given). […]
The calcium mobilization signals obtained are increase in peak fluorescence (F) normalized to the baseline fluorescence (F0). […]

Q: COc1cc(C)ccc1CNC(=O)C(=O)NCCc1ccccn1 [745047-97-6-oxalamide, N-(2-Methoxy-4-methyl-benzyl)-N′-(2-pyridin-2-yl-ethyl)-oxalamide] was tested. Which “response (calcium signal) of CSR:T1R1 chimeric homomer, in words” value [1] did it give?
A: significant increase of the signal; also recorded: activated

Q: What about the “CSR:T1R1 AVG (mean ΔF/F)” value [1] of the same compound?
A: 0.31

Q: What about the “response (calcium signal) of CSR:T1R1/CSR:T1R3 chimeric heterodimer, in words” value [2] of the same compound?
A: significant increase of the signal; also recorded: significantly higher the background signals; also recorded: activated

Q: What about the “CSR:T1R1/CSR:T1R3 AVG (mean ΔF/F)” value [2] of the same compound?
A: 0.43

Q: What about the “signal in CSR:T1R1/CSR:T1R3 cells as magnitude of signals obtained in cells transfected with the hCaSR receptor” value [2] of the same compound?
A: approximately 50%

Q: What about the “hCaSR AVG (mean ΔF/F)” value (hCaSR) of the same compound?
A: 0.04

Q: And the “response in mock transfected negative control, in words” value [3]?
A: No response

Q: What about the “Neg. control (mock transfection) AVG (mean ΔF/F)” value [3] of the same compound?
A: 0.03

Q: [Ca+2].[Cl-].[Cl-] [Calcium, Calcium Chloride] was tested. Which “response (calcium signal) of CSR:T1R1 chimeric homomer, in words” value ([1]; listed as calcium) did it give?
A: react to calcium; also recorded: activated

Q: And the “response (calcium signal) of CSR:T1R1 chimeric homomer, in words” value ([1]; listed as calcium chloride)?
A: significant increase of the signal

Q: And the “CSR:T1R1 AVG (mean ΔF/F)” value [1]?
A: 0.78

Q: And the “response (calcium signal) of CSR:T1R1/CSR:T1R3 chimeric heterodimer, in words” value ([2]; listed as calcium)?
A: react to calcium; also recorded: activated

Q: And the “response (calcium signal) of CSR:T1R1/CSR:T1R3 chimeric heterodimer, in words” value ([2]; listed as calcium chloride)?
A: significant increase of the signal; also recorded: significantly higher the background signals

Q: What about the “CSR:T1R1/CSR:T1R3 AVG (mean ΔF/F)” value [2] of the same compound?
A: 0.72

Q: And the “signal in CSR:T1R1/CSR:T1R3 cells as magnitude of signals obtained in cells transfected with the hCaSR receptor” value [2]?
A: approximately 50%

Q: And the “response (calcium signal) of hCaSR, in words” value (hCaSR; listed as calcium)?
A: react to calcium

Q: And the “response (calcium signal) of hCaSR, in words” value (hCaSR; listed as calcium chloride)?
A: responded

Q: What about the “hCaSR AVG (mean ΔF/F)” value (hCaSR) of the same compound?
A: 1.44

Q: What about the “response in mock transfected negative control, in words” value [3] of the same compound?
A: No response

Q: And the “Neg. control (mock transfection) AVG (mean ΔF/F)” value [3]?
A: 0.24
